Measured values from the supplement of paper PMC10307832.

Tests used:
Experiment in all cases: relative viability (nuclei count vs DMSO), 5 days (fraction); higher = more cells survive
[1] = system: 201T
Procedure, shortened: (§1)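 Lung cancer cell lines were pin-tool dosed in 1536-well plates on the day after seeding, with either a lone drug or a fixed anchor-drug dose plus five library-drug doses (not always all listed) in √10 steps. Nuclei were counted on 4× images after 5 days. Relative viability is the ratio of treated-well to vehicle-well nuclei counts, with each value a median of duplicate plates.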

[2] = system: COR-L23
Procedure, shortened: as §1

[3] = system: EPLC-272H
Procedure, shortened: as §1

[4] = system: H3255
Procedure, shortened: as §1

[5] = system: HCC-15
Procedure, shortened: as §1

[6] = system: LOU-NH91
Procedure, shortened: as §1

[7] = system: NCI-H1650
Procedure, shortened: as §1

[8] = system: NCI-H1734
Procedure, shortened: as §1

[9] = system: NCI-H1793
Procedure, shortened: as §1

[10] = system: NCI-H2023
Procedure, shortened: as §1

[11] = system: NCI-H2170
Procedure, shortened: as §1

[12] = system: NCI-H2347
Procedure, shortened: as §1

[13] = system: NCI-H2405
Procedure, shortened: as §1

[14] = system: NCI-H3122
Procedure, shortened: as §1

[15] = system: NCI-H322M
Procedure, shortened: as §1

[16] = system: NCI-H441
Procedure, shortened: as §1

[17] = system: NCI-H520
Procedure, shortened: as §1

[18] = system: NCI-H647
Procedure, shortened: as §1

[19] = system: PC-14
Procedure, shortened: as §1

[20] = system: SW 900
Procedure, shortened: as §1

[21] = system: UMC-11
Procedure, shortened: as §1

O=c1cc(-c2cccc3c2Sc2ccccc2S3)oc(N2CCOCC2)c1 + CC(=O)c1c(C)c2cnc(Nc3ccc(N4CCNCC4)cn3)nc2n(C2CCCC2)c1=O [Palbociclib] (partner 0.5 µM) gave a relative viability ([1]; first compound 0.08 µM) of 0.348, a relative viability ([1]; first compound 0.253 µM) of 0.362 and a relative viability ([1]; first compound 0.8 µM) of 0.373. The relative viability ([1]; first compound 2.53 µM) was 0.348, the relative viability ([1]; first compound 8 µM) was 0.359 and the relative viability ([2]; first compound 0.08 µM) was 0.291. The relative viability ([2]; first compound 0.253 µM) was 0.307, the relative viability ([2]; first compound 0.8 µM) was 0.393 and the relative viability ([2]; first compound 2.53 µM) was 0.334. The relative viability ([2]; first compound 8 µM) was 0.34, the relative viability ([3]; first compound 0.08 µM) was 0.34 and the relative viability ([3]; first compound 0.253 µM) was 0.318. The relative viability ([3]; first compound 0.8 µM) was 0.321, the relative viability ([3]; first compound 2.53 µM) was 0.287 and the relative viability ([3]; first compound 8 µM) was 0.285. The relative viability ([4]; first compound 0.08 µM) was 0.334, the relative viability ([4]; first compound 0.253 µM) was 0.295 and the relative viability ([4]; first compound 0.8 µM) was 0.305. For the same molecule, the relative viability ([4]; first compound 2.53 µM) was 0.278, the relative viability ([4]; first compound 8 µM) was 0.33 and the relative viability ([5]; first compound 0.08 µM) was 0.796. For the same molecule, the relative viability ([5]; first compound 0.253 µM) was 0.778, the relative viability ([5]; first compound 0.8 µM) was 0.79 and the relative viability ([5]; first compound 2.53 µM) was 0.695. It also gave a relative viability ([5]; first compound 8 µM) of 0.636, a relative viability ([6]; first compound 0.08 µM) of 0.528 and a relative viability ([6]; first compound 0.253 µM) of 0.518. It also gave a relative viability ([6]; first compound 0.8 µM) of 0.543, a relative viability ([6]; first compound 2.53 µM) of 0.535 and a relative viability ([6]; first compound 8 µM) of 0.571. The relative viability ([7]; first compound 0.08 µM) was 0.377, the relative viability ([7]; first compound 0.253 µM) was 0.38 and the relative viability ([7]; first compound 0.8 µM) was 0.284. It also gave a relative viability ([7]; first compound 2.53 µM) of 0.311, a relative viability ([7]; first compound 8 µM) of 0.353 and a relative viability ([8]; first compound 0.08 µM) of 0.33. The relative viability ([8]; first compound 0.253 µM) was 0.344, the relative viability ([8]; first compound 0.8 µM) was 0.414 and the relative viability ([8]; first compound 8 µM) was 0.357. The relative viability ([9]; first compound 0.08 µM) was 0.21, the relative viability ([9]; first compound 0.253 µM) was 0.308 and the relative viability ([9]; first compound 0.8 µM) was 0.311. The relative viability ([9]; first compound 2.53 µM) was 0.257, the relative viability ([9]; first compound 8 µM) was 0.273 and the relative viability ([10]; first compound 0.08 µM) was 0.379. The relative viability ([10]; first compound 0.253 µM) was 0.407, the relative viability ([10]; first compound 0.8 µM) was 0.407 and the relative viability ([10]; first compound 2.53 µM) was 0.369. For the same molecule, the relative viability ([10]; first compound 8 µM) was 0.291, the relative viability ([11]; first compound 0.08 µM) was 0.45 and the relative viability ([11]; first compound 0.253 µM) was 0.482. For the same molecule, the relative viability ([11]; first compound 0.8 µM) was 0.414, the relative viability ([11]; first compound 2.53 µM) was 0.354 and the relative viability ([11]; first compound 8 µM) was 0.359. It also gave a relative viability ([12]; first compound 0.08 µM) of 0.42, a relative viability ([12]; first compound 0.253 µM) of 0.483 and a relative viability ([12]; first compound 0.8 µM) of 0.453. For the same molecule, the relative viability ([12]; first compound 2.53 µM) was 0.39, the relative viability ([12]; first compound 8 µM) was 0.483 and the relative viability ([13]; first compound 0.08 µM) was 0.523. The relative viability ([13]; first compound 0.253 µM) was 0.534, the relative viability ([13]; first compound 0.8 µM) was 0.55 and the relative viability ([13]; first compound 2.53 µM) was 0.491. The relative viability ([13]; first compound 8 µM) was 0.503, the relative viability ([14]; first compound 0.08 µM) was 0.169 and the relative viability ([14]; first compound 0.253 µM) was 0.2. It also gave a relative viability ([14]; first compound 0.8 µM) of 0.208, a relative viability ([14]; first compound 2.53 µM) of 0.188 and a relative viability ([14]; first compound 8 µM) of 0.192. It also gave a relative viability ([15]; first compound 0.08 µM) of 0.453, a relative viability ([15]; first compound 0.253 µM) of 0.474 and a relative viability ([15]; first compound 0.8 µM) of 0.502. For the same molecule, the relative viability ([15]; first compound 2.53 µM) was 0.449, the relative viability ([15]; first compound 8 µM) was 0.475 and the relative viability ([16]; first compound 0.08 µM) was 0.189. For the same molecule, the relative viability ([16]; first compound 0.253 µM) was 0.187, the relative viability ([16]; first compound 0.8 µM) was 0.215 and the relative viability ([16]; first compound 2.53 µM) was 0.203. It also gave a relative viability ([16]; first compound 8 µM) of 0.18, a relative viability ([17]; first compound 0.08 µM) of 0.233 and a relative viability ([17]; first compound 0.253 µM) of 0.22. It also gave a relative viability ([17]; first compound 0.8 µM) of 0.21, a relative viability ([17]; first compound 2.53 µM) of 0.243 and a relative viability ([17]; first compound 8 µM) of 0.231. For the same molecule, the relative viability ([18]; first compound 0.08 µM) was 0.438, the relative viability ([18]; first compound 0.253 µM) was 0.487 and the relative viability ([18]; first compound 0.8 µM) was 0.357. The relative viability ([18]; first compound 2.53 µM) was 0.296, the relative viability ([18]; first compound 8 µM) was 0.391 and the relative viability ([19]; first compound 0.08 µM) was 0.552. The relative viability ([19]; first compound 0.253 µM) was 0.746, the relative viability ([19]; first compound 0.8 µM) was 0.578 and the relative viability ([19]; first compound 2.53 µM) was 0.46. It also gave a relative viability ([19]; first compound 8 µM) of 0.489, a relative viability ([20]; first compound 0.253 µM) of 0.557 and a relative viability ([20]; first compound 0.8 µM) of 0.555. The relative viability ([20]; first compound 2.53 µM) was 0.492, the relative viability ([20]; first compound 8 µM) was 0.469 and the relative viability ([21]; first compound 0.08 µM) was 0.338. It also gave a relative viability ([21]; first compound 0.253 µM) of 0.328, a relative viability ([21]; first compound 0.8 µM) of 0.346 and a relative viability ([21]; first compound 2.53 µM) of 0.326. For the same molecule, the relative viability ([21]; first compound 8 µM) was 0.345.
